How the values were obtained:
293T cells [1] = test: Fluorescent detection of Fluc-mRNA (cell transfection efficiency of LNP formulations); type: cell-based
Protocol: (§1) Cell recovery and passage: 293T cells were recovered, cultured in a culture dish, and passaged to the required number of cells.
(§2) Seeding plate: The cells in the culture dish were digested and counted. Cells were spread in a 96-well plate at 10,000 cells per well and in a 12-well plate at 150,000 cells per well. Cells were cultured overnight until the cells adhered to the wall.
(§3) Cell recovery and passage: the method was the same as in Example 3.
(§4) Seeding plate: the method was the same as in Example 3.
An LNP formulation containing […] of Fluc-mRNA (the carrier components of the LNP formulation were cationic lipid, neutral lipid, structured lipid and polymer-conjugated lipid with a molar ratio of 49:10:39.5:1.5, wherein the cationic lipid was listed in Table 1) was added to the cell culture medium of a 96-well plate, and further incubated for 24 hours. The corresponding reagent was added according to the instructions of the […] Luciferase Assay Kit, and the fluorescence expression intensity of each well was detected by an IVIS fluorescence detection system. This test verified the transfection efficiencies of LNP formulations in cells, see Tables 4-7 for specific test results.

293T cells [2] = test: Cell survival rate determination (CCK-8); type: cell-based; conditions: LNP formulation of Fluc-mRNA, 24 hours, CCK-8
Protocol: as §1, §2, §3, §4
An LNP formulation containing […] of Fluc-mRNA (the carrier components of the LNP formulation were cationic lipid, neutral lipid, structured lipid and polymer-conjugated lipid with a molar ratio of 49:10:39.5:1.5, wherein the cationic lipid was listed in Table 1) and the formulation of Lipofectamine 3000 were added to the cell culture medium of a 96-well plate, and further cultivated for 24 hours. 10 μL of CCK-8 solution was then added to each well, and the culture plate was incubated in an incubator for 1 hour. The absorbance at 450 nm was measured by a microplate reader.
Cell survival rate can represent the toxicity of cationic lipids to cells. The higher the cell survival rate, the lower the toxicity to cells.

female BALB/C mice = test: Live imaging in mice: protein expression of Fluc-mRNA delivered by LNP formulations; type: in vivo
Protocol: In addition, the protein expression and duration of mRNA in mice delivered by the cationic lipid delivery carriers designed were also verified.
(§5) The LNP formulation containing […] Fluc-mRNA was injected intramuscularly into female BALB/C mice aged 4 to 6 weeks old and weighed 17 to 19 g, and the mice were intraperitoneally injected with fluorescent imaging substrate at specific time points after administration (6 h, 24 h, 48 h and 7 d), where the mice were free to move for 5 minutes, and then the average radiation intensity (corresponding to fluorescence expression intensity) of the protein expression of the mRNA carried by the LNP in the mice was detected by the IVIS Spectrum small animal live imaging device.

liver = test: Distribution of liposomes in mice: protein expression in the liver (live imaging); type: in vivo; conditions: at 6 h, intramuscular injection
Protocol: as §5
At 24 h, the LNP formulations prepared from all compounds had been metabolized in the liver and had no protein expression.

protein expression in the liver (liver): had protein expression in the liver
Compound: CCCCCCCCC(CCCCCCCC)OC(=O)CCCCCCCN(CCO)CCCCCCCC(=O)OCCC(CCCCCC)CCCCCC [Compound 21, reference compound]
Relative light unit (RLU) (293T cells [1]; LNP formulation of Fluc-mRNA, 96-well plate, 24 hours): 1432170 RLU
Multiples (YK-305) (293T cells [1]; RLU of YK-305 / RLU of the lipid of the line): 19.14
Multiples (YK-310) (293T cells [1]; RLU of YK-310 / RLU of the lipid of the line): 18.01
Multiples (YK-312) (293T cells [1]; RLU of YK-312 / RLU of the lipid of the line): 14.07
Multiples (YK-318) (293T cells [1]; RLU of YK-318 / RLU of the lipid of the line, Tables 5, 7, 11): 7.81
Multiples (YK-319) (293T cells [1]; RLU of YK-319 / RLU of the lipid of the line, Tables 5, 7, 11): 17.08
Ratio relative to SM-102 (293T cells [1]; RLU of the lipid / RLU of SM-102, times that of SM-102): 0.89
Cell survival rate (%) (293T cells [2]): 70.21%
average radiation intensity (female BALB/C mice; 6 h after intramuscular injection): 610340
average radiation intensity (female BALB/C mice; 24 h after intramuscular injection): 109840
average radiation intensity (female BALB/C mice; 48 h after intramuscular injection): 30980
average radiation intensity (female BALB/C mice; 7 d after intramuscular injection): 6445

Reference: patent US20260007613A1, “LONG-ACTING LOW-TOXICITY NOVEL CATIONIC LIPID COMPOUNDS AND COMPOSITION THEREOF” (BEIJING YOUCAREKECHUANG PHARMACEUTICAL TECHNOLOGY CO., LTD., priority 2023, published 2026)
